Data: US9150526B2, “Biaryl-propionic acid derivatives and their use as pharmaceuticals” (SANOFI, priority 2013, dated 2015)

System: Recombinant human cathepsin A
Test: Cathepsin A inhibitory activity (Bodipy FL-bradykinin substrate, microfluidic capillary electrophoresis)
Assay type: biochemical
Conditions: read-out: CATH A IC50
Description: Pharmacological Tests a) Cathepsin a Inhibitory Activity
Recombinant human cathepsin A (residues 29-480, with a C-terminal 10-His tag; R&D Systems, #1049-SE) was proteolytically activated with recombinant human cathepsin L (R&D Systems, #952-CY). Briefly, cathepsin A was incubated at 10 μg/ml with cathepsin L at 1 μg/ml in activation buffer (25 mM 2-(morpholin-4-yl)-ethanesulfonic acid (MES), pH 6.0, containing 5 mM dithiothreitol (DTT)) for 15 min at 37° C.
The activated cathepsin A was diluted in assay buffer (25 mM MES, pH 5.5, containing 5 mM DTT) and mixed with the test compound (dissolved in assay buffer containing (v/v) 3% DMSO) or, in the control experiments, with the vehicle in a multiple assay plate. After incubation for 15 min at room temperature, as substrate then bradykinin carrying an N-terminal ®Bodipy FL (4,4-difluoro-5,7-dimethyl-4-bora-3a,4a-diaza-s-indacene-3-propionyl) label (JPT Peptide Technologies GmbH; dissolved in assay buffer) was added to the mixture. The final concentration of cathepsin A was 833 ng/ml and the final concentration of labeled bradykinin 2 μM. After incubation for 15 min at room temperature the reaction was stopped by the addition of stop buffer (130 mM 2-(4-(2-hydroxy-ethyl)-piperazin-1-yl)-ethanesulfonic acid, pH 7.4, containing (v/v) 0.013% ®Triton X-100, 0.13% Coating Reagent 3 (Caliper Life Sciences), 6.5% DMSO and 20 μM ebelactone B (Sigma, # E0886)).
Uncleaved substrate and product were then separated by a microfluidic capillary electrophoresis on a LabChip® 3000 Drug Discovery System (12-Sipper-Chip; Caliper Life Sciences) and quantified by determination of the respective peak areas. Substrate turnover was calculated by dividing product peak area by the sum of substrate and product peak areas, and the enzyme activity and the inhibitory effect of the test compound thus quantified.

Structure (SMILES)	IC50 [nM]
COc1ccc(-c2cc(F)cc(C(CC(=O)O)c3ncc(C)s3)c2)c(OC)c1 (stereo not drawn) [compound 120]	199
COc1ccc(-c2cccc(C(CC(=O)O)c3nnc(C)o3)c2)c(OC)c1 (stereo not drawn) [compound 147]	137
COc1ccc(OC(F)(F)F)cc1-c1cccc(C(CC(=O)O)c2nccs2)c1 (stereo not drawn) [compound 34]	389
COc1cccc(OC)c1-c1cncc(C(CC(=O)O)c2nnc(C)o2)c1 (stereo not drawn) [compound 184]	160
COc1cccc(F)c1-c1cccc(C(CC(=O)O)c2nccs2)c1 (stereo not drawn) [compound 26]	148
COc1ccc(C(C)(C)C)cc1-c1cccc(C(CC(=O)O)c2ncco2)c1 (stereo not drawn) [compound 13]	103
COc1cccc(C(=O)N2CCCC2)c1-c1cc(Cl)cc(C(CC(=O)O)c2nnc(C)o2)c1 (stereo not drawn) [compound 171]	4210
COc1ccc(Cl)cc1-c1cccc(C(CC(=O)O)c2ncc(C)s2)c1 (stereo not drawn) [compound 62]	262
COc1cc(F)ccc1-c1cccc(C(CC(=O)O)c2nnc(C)o2)c1 (stereo not drawn) [compound 146]	129
COc1ccc(C(C)C)cc1-c1cncc(C(CC(=O)O)c2nnc(C)o2)c1 (stereo not drawn) [compound 183]	1030
COc1ccc(C(C)C)cc1-c1cccc([C@H](CC(=O)O)c2nnc(C)o2)c1 [compound 108]	6260
O=C(O)CC(c1cc(F)cc(-c2ccccc2OC(F)(F)F)c1)c1ncco1 (stereo not drawn) [compound 130]	466
COc1cc(OC(F)(F)F)ccc1-c1cccc(C(CC(=O)O)c2nccs2)c1 (stereo not drawn) [compound 46]	1530
COc1ccc(OC(F)(F)F)cc1-c1cncc(C(CC(=O)O)c2nnc(C)o2)c1 (stereo not drawn) [compound 197]	4760
COc1c(F)cc(F)cc1-c1cc(Cl)cc(C(CC(=O)O)c2ncc(C)s2)c1 (stereo not drawn) [compound 91]	131
COc1ccc(S(C)(=O)=O)cc1-c1cc(F)cc(C(CC(=O)O)c2nnc(C)o2)c1 (stereo not drawn) [compound 178]	588
COc1cccc(C(=O)N2CCCC2)c1-c1cc(C(CC(=O)O)c2nnc(C)o2)cc(C(F)(F)F)c1 (stereo not drawn) [compound 216]	1460
COc1ccc(Cl)cc1-c1cncc(C(CC(=O)O)c2nnc(C)o2)c1 (stereo not drawn) [compound 191]	3910
COc1cccc(CO)c1-c1cc(F)cc(C(CC(=O)O)c2nnc(C)o2)c1 (stereo not drawn) [compound 167]	400
COc1ccc(Cl)cc1-c1cccc(C(CC(=O)O)c2nnc(C)o2)c1 (stereo not drawn) [compound 50]	108
COc1ccc(C(C)(C)C)cc1-c1cc(F)cc(C(CC(=O)O)c2ncc(C)s2)c1 (stereo not drawn) [compound 113]	124
COc1cccc(F)c1-c1cncc(C(CC(=O)O)c2nnc(C)o2)c1 (stereo not drawn) [compound 195]	3900

Structure (SMILES)	IC50 [nM]
COc1ccc(S(C)(=O)=O)cc1-c1cc(Cl)cc(C(CC(=O)O)c2nnc(C)o2)c1 (stereo not drawn) [compound 170]	109
COc1ccccc1-c1ccc(OC)c(C(CC(=O)O)c2ncc(C)s2)c1 (stereo not drawn) [compound 66]	4410
COc1cc(F)ccc1-c1cc(Cl)cc(C(CC(=O)O)c2ncc(C)s2)c1 (stereo not drawn) [compound 90]	119
COc1cc(C(N)=O)ccc1-c1cc(Cl)cc(C(CC(=O)O)c2ncc(C)s2)c1 (stereo not drawn) [compound 89]	118
COc1cccc(OC(C)C)c1-c1cccc(C(CC(=O)O)c2nccs2)c1 (stereo not drawn) [compound 28]	165
CCOc1ccc(C)cc1-c1cccc(C(CC(=O)O)c2nccs2)c1 (stereo not drawn) [compound 25]	147
COc1ccc(F)cc1-c1cccc(C(CC(=O)O)c2nccs2)c1 (stereo not drawn) [compound 3]	160
COc1ccc(C)cc1-c1cccc(C(CC(=O)O)c2nccs2)c1 (stereo not drawn) [compound 24]	147
COc1cccc(C#N)c1-c1cc(F)cc(C(CC(=O)O)c2nnc(C)o2)c1 (stereo not drawn) [compound 163]	446
COc1ccc(CO)cc1-c1cccc(C(CC(=O)O)c2ncc(C)s2)c1 (stereo not drawn) [compound 57]	131
COc1cc(C(N)=O)ccc1-c1cccc(C(CC(=O)O)c2nccs2)c1 (stereo not drawn) [compound 45]	1380
CCOc1ccccc1-c1cncc(C(CC(=O)O)c2nnc(C)o2)c1 (stereo not drawn) [compound 193]	4270
COc1ccc(F)cc1-c1cncc(C(CC(=O)O)c2nnc(C)o2)c1 (stereo not drawn) [compound 192]	7070
COc1ccc(C(C)C)cc1-c1cc(F)cc(C(CC(=O)O)c2ncc(C)s2)c1 (stereo not drawn) [compound 119]	195
COc1c(F)cc(F)cc1-c1cc(F)cc(C(CC(=O)O)c2ncco2)c1 (stereo not drawn) [compound 129]	457
COc1cccc(CO)c1-c1cccc(C(CC(=O)O)c2nnc(C)o2)c1 (stereo not drawn) [compound 150]	325
COc1ccc(OC)c(-c2cccc(C(CC(=O)O)c3nccs3)c2)c1 (stereo not drawn) [compound 21]	129
COc1cc(Cl)ccc1-c1cccc(C(CC(=O)O)c2nccs2)c1 (stereo not drawn) [compound 38]	590
COc1ccc(C)cc1-c1cncc(C(CC(=O)O)c2nnc(C)o2)c1 (stereo not drawn) [compound 181]	2220
CCOc1ccc(C)cc1-c1cc(F)cc(C(CC(=O)O)c2ncco2)c1 (stereo not drawn) [compound 117]	155
COc1cccc(C#N)c1-c1cccc(C(CC(=O)O)c2nnc(C)o2)c1 (stereo not drawn) [compound 152]	652

Now those with a lower IC50, led by results:

IC50 [nM]	Structure (SMILES)
10	COc1ccc2c(c1-c1cc(C(CC(=O)O)c3nnc(C)o3)cc(C(F)(F)F)c1)OC(C)(C)C2 (stereo not drawn) [compound 207]
37	COc1ccc(F)c(F)c1-c1cc(Cl)cc(C(CC(=O)O)c2ncc(C)s2)c1 (stereo not drawn) [compound 78]
96	COc1ccc(F)cc1-c1cccc(C(CC(=O)O)c2ncc(C)s2)c1 (stereo not drawn) [compound 55]
97	COc1ccc(C(C)C)cc1-c1cccc(C(CC(=O)O)c2ncc(C)s2)c1 (stereo not drawn) [compound 56]
19	COc1cc(C)cc(OC)c1-c1cc(Cl)cc(C(CC(=O)O)c2ncc(C)s2)c1 (stereo not drawn) [compound 74]
55	COc1ccc(C(C)(C)C)cc1-c1cc(Cl)cc(C(CC(=O)O)c2ncc(C)s2)c1 (stereo not drawn) [compound 85]
17	COc1ccc(C)cc1-c1cc(Cl)cc(C(CC(=O)O)c2nnc(C)o2)c1 (stereo not drawn) [compound 169]
35	COc1ccc(C(C)(C)C)cc1-c1cccc([C@H](CC(=O)O)c2nccs2)c1 [compound 5]
56	COc1cccc(F)c1-c1cc(F)cc(C(CC(=O)O)c2ncc(C)s2)c1 (stereo not drawn) [compound 101]
65	Cc1nnc(C(CC(=O)O)c2cc(-c3ccccc3OC(F)(F)F)cc(C(F)(F)F)c2)o1 (stereo not drawn) [compound 208]
7	COc1cccc(OC)c1-c1cc(Cl)cc(C(CC(=O)O)c2ncc(C)s2)c1 (stereo not drawn) [compound 10]
13	COc1ccccc1-c1cc(C(CC(=O)O)c2nnc(C)o2)cc(C(F)(F)F)c1 (stereo not drawn) [compound 217]
6	COc1cc(C)cc(OC)c1-c1cc(C(CC(=O)O)c2nnc(C)o2)cc(C(F)(F)F)c1 (stereo not drawn) [compound 206]
44	COc1ccc(C(C)C)cc1-c1cc(F)cc(C(CC(=O)O)c2nnc(C)o2)c1 (stereo not drawn) [compound 160]
35	COc1cc(F)ccc1-c1cc(C(CC(=O)O)c2nnc(C)o2)cc(C(F)(F)F)c1 (stereo not drawn) [compound 200]
17	COc1cccc(Cl)c1-c1cc(C(CC(=O)O)c2nnc(C)o2)cc(C(F)(F)F)c1 (stereo not drawn) [compound 214]

IC50 [nM]	Structure (SMILES)
25	COc1ccc(C(C)C)cc1-c1cc(Cl)cc(C(CC(=O)O)c2nnc(C)o2)c1 (stereo not drawn) [compound 153]
65	CCOc1ccc(C)cc1-c1cc(Cl)cc(C(CC(=O)O)c2ncc(C)s2)c1 (stereo not drawn) [compound 86]
12	COc1ccc(F)cc1-c1cc(C(CC(=O)O)c2nnc(C)o2)cc(C(F)(F)F)c1 (stereo not drawn) [compound 218]
89	Cc1nnc(C(CC(=O)O)c2cc(Cl)cc(-c3ccccc3OC(F)(F)F)c2)o1 (stereo not drawn) [compound 158]
85	COc1ccc(OC(F)(F)F)cc1-c1cccc(C(CC(=O)O)c2nnc(C)o2)c1 (stereo not drawn) [compound 143]
67	COc1cccc(F)c1-c1cc(F)cc(C(CC(=O)O)c2nnc(C)o2)c1 (stereo not drawn) [compound 179]
91	CCOc1ccccc1-c1cccc(C(CC(=O)O)c2nnc(C)o2)c1 (stereo not drawn) [compound 144]
52	COc1ccc(C)cc1-c1cc(Cl)cc(C(CC(=O)O)c2ncc(C)s2)c1 (stereo not drawn) [compound 81]
49	COc1ccc(C(C)C)cc1-c1cccc(C(CC(=O)O)c2nnc(C)o2)c1 (stereo not drawn) [compound 64]
17	COc1ccc(Cl)cc1-c1cc(C(CC(=O)O)c2nnc(C)o2)cc(C(F)(F)F)c1 (stereo not drawn) [compound 209]
66	COc1cc(C)cc(OC)c1-c1cccc(C(CC(=O)O)c2nccs2)c1 (stereo not drawn) [compound 14]
17	COc1ccc2c(c1-c1cc(Cl)cc(C(CC(=O)O)c3nnc(C)o3)c1)OC(C)(C)C2 (stereo not drawn) [compound 157]
27	COc1ccc(C(C)C)cc1-c1cccc([C@@H](CC(=O)O)c2nnc(C)o2)c1 [compound 185]
47	CCOc1ccccc1-c1cc(Cl)cc(C(CC(=O)O)c2ncc(C)s2)c1 (stereo not drawn) [compound 80]
73	COc1cccc(CO)c1-c1cc(C(CC(=O)O)c2nnc(C)o2)cc(C(F)(F)F)c1 (stereo not drawn) [compound 219]
94	COc1ccc(OC)c(-c2cccc(C(CC(=O)O)c3ncc(C)s3)c2)c1 (stereo not drawn) [compound 54]
